Series [1] deals with pol β (Homo sapiens, UniProt P06746). Briefly: Pol β DNA synthesis on 1-nt gap substrate. Type of series: biochemical. As for the experimental part: Lane 1 represents the substrate only. Lanes 2 and 3 indicates the reaction mixture with 5 nM LIG I in the absence and presence of DMSO. […] The substrate was ^32P-labeled at the 5′-end of the upstream strand and is illustrated above the gel. The experiments were repeated at least three times. Representative gel is illustrated. Quantification of the results is shown below the gel. Two-way ANOVA with Tukey's multiple comparison posttests was used to determine statistically significant differences. * signifies p<0.05 compared to the control reaction with LIG I and DMSO. […] Lane 1 represents the substrate only. Lanes 2 and 3 indicates the reaction mixture with 5 nM pol β in the absence and presence of DMSO. […] The substrate was ^32P-labeled at the 5′-end of the upstream strand and is illustrated above the gel. The experiments were repeated at least three times. Quantification of the results are shown below the gel. Two-way ANOVA with Tukey's multiple comparison posttests was used to determine statistical significance. * signifies p<0.05 compared to the control reaction with pol β and DMSO.
BER reactions were terminated by adding 2× stopping buffer containing 95% formamide and 10 mM EDTA. Reaction mixtures were then denatured at 95° C. for 5 min and separated by 15% urea-denaturing polyacrylamide gel electrophoresis. Substrates and products were detected and analyzed using a Pharos FX Plus PhosphorImager (Bio-Rad, Hercules, Calif.).

Series [2] deals with LAPC4 cells. Briefly: Cell Titer Glo cell viability assay, LAPC4. Format: cell-based, human. The conditions noted are these: 10 μM; androgen depleted conditions (CSS); 24 and 48 h. On the procedure:
(§1) FIGS. 3A-3B show cellular toxicity of the lead compounds in androgen-dependent prostate cancer cell lines. (3A) LNCaP cells were plated in a 96-well plate at 1×10^4 cells/well in the presence of Fetal Bovine Serum (FBS) or Charcoal stripped Serum (CSS). Cells were allowed to attach overnight and were treated with either vehicle (DMSO) or 10 μM of indicated compound. At 24 and 48 h cellular viability was compared using the Cell Titer Glo Luminescent Cell Viability kit. (3B) LAPC4 cells were plated in a 96-well plate at a density of 1×10^4 cells/well in the presence of FBS or CSS. Cells were allowed to attach overnight and treated with 10 μM of indicated compound.
(§2) Cell viability was determined using the Cell Titer Glo Cell Viability Assay (Promega, Madison, Wis.), as recommended by manufacturer. All experiments were performed in quadruplicate.
Background: In ATP-based viability assays light output follows the ATP content of the culture.

The subject of series [3] is LNCaP cells. Briefly: MTT viability/toxicity assay, LNCaP. The conditions noted are these: 48 h. Type of series: cell-based. As for the experimental part:
Cells were seeded in a 96 well plate at 1×10^4 cells/well and allowed to adhere overnight in the presence of FBS or CSS. The following day treatment was added to the wells and the plates were incubated for 24 h or 48 h. After incubation, 50 μL of MTT (2 mg/mL) was added to each well and incubated in the dark for 4 h. After incubation 150 μL of the media/MTT solution was removed and 100 μL of DMSO was added to each well and incubated for 15 min. Absorbance at 570 nm was measured using a ClarioStar Plate Reader (BMG LabTech, Ortenburg, Germany).

In series [4] the test system is BER reconstituted with purified Pol β, FEN1, and LIG I. The experiment in a line: Secondary gel-based BER assay reconstituted with purified core BER enzymes. Format: biochemical. The following applies: 10 μM compound, THF substrate. As for the experimental part: The secondary screening assay was performed as described below in the “Materials and Methods” section. Lane 1 represents the substrate only. Lane 2 indicates the reaction mixture with 5 nM APE1. Lanes 3 and 4 correspond to the reaction mixture with 5 nM APE1, 10 nM pol β, 10 nM FEN1 and 20 nM LIG I in the absence and presence of dimethylsulfoxide (DMSO). Lanes 5 through 19 correspond to the reaction mixture with 5 nM APE1, 10 nM pol β, 10 nM FEN1 and 20 nM LIG I in the presence of indicated compounds. The experiments were repeated at least three times. A representative gel is illustrated.
The hit compounds were subject to secondary assays to determine their ability to reduce the BER capacity when reconstituted with purified core BER enzymes, as well as their inhibitory effects on individual BER enzymes including pol FEN1 and LIG I. The effect of hit compounds on BER capacity and BER enzymes was examined using a denaturing sequencing gel-based assay. 10 μM hit compounds were incubated with 10 nM pol β, 10 nM FEN1 and 20 nM LIG I in BER reaction buffer containing 50 mM Tris-HCl (pH 7.5), 50 mM KCl, 0.1 mM EDTA, 0.1 mg/ml bovine serum albumin, and 0.01% Nonidet P-40 in the presence of 5 mM Mg^2+ and 2 mM ATP. The compounds were initially preincubated with a BER enzyme at varying concentrations for 1 h with rotation. This was followed by the addition of 25 nM ^32P-labeled substrate containing an abasic site, which was precut with 25 or 50 nM APEI. The reaction mixture (20 μL) was incubated at 37° C. for 30 min, and the reaction was terminated by 50 mM EDTA. Substrates, products, and unrepaired BER intermediates were separated by 15% urea-denaturing sequencing gel and detected by a Pharos FX Plus PhosphorImager (Bio-Rad, Hercules, Calif.).
Among the 26 identified compounds, nine were DNA intercalators or inhibitors of human DNA topoisomerases and were excluded from further studies. Thus, […] FDA approved drugs were selected for further testing. To further confirm the inhibitory effects of the lead compounds on BER, the effects of the compounds on BER reactions reconstituted with purified BER core enzymes were initially determined.

Series [5] relates to RWPE1 cells. The experiment in a line: Cell Titer Glo cell viability assay, RWPE1. Format: cell-based. The following applies: 10 μM; after 24 h and 48 h; serum free medium with EGF and BPE. As for the experimental part: FIGS. 4A-4B show cellular toxicity of lead compounds in nonmalignant androgen independent prostate-derived cell lines. (4A) PNT1A cells were plated in a 96-well plate at 1×10^4 cell/well in the presence of FBS or CSS. Cells were allowed to attach overnight and were treated with either vehicle (DMSO) or 10 μM of indicated compound. At 24 and 48 h, cellular viability was compared using the Cell Titer Glo Luminescent Cell Viability kit. (4B) RWPE1 cells were plated in a 96-well plate at 1×10^4 cells/well using the specified serum free media. Cells were allowed to attach overnight and treated with 10 μM of indicated compound.
as §2
Next, whether the same concentration of compounds decreases the viability of the AR negative and nonmalignant prostate derived cells, PNT1A and RWPE1, was tested.

For series [6], the system named is LNCaP cells. Briefly: Cell Titer Glo cell viability assay, LNCaP. Type of series: cell-based. The following applies: 10 μM; androgen depleted conditions (CSS); 24 and 48 h. On the procedure:
as §1, §2

The structures appear in SMILES notation. A value given as a limit tells only on which side of the number the result lay.

As to `C[C@@H]1C/C=C/C=C/C=C/C=C/[C@H](O[C@@H]2O[C@H](C)[C@@H](O)[C@H](N)[C@@H]2O)C[C@@H]2O[C@](O)(C[C@@H](O)C[C@H]3O[C@@H]3/C=C/C(=O)O1)C[C@H](O)[C@H]2C(=O)O` [natamycin], the “pol β 1 nt gap-filling synthesis” value in series [1] (FIG. 8B, lanes 5-7) is “did not inhibit”. In series [1] (at 2 nM-5 nM), the “pol β strand-displacement synthesis” value is listed as “significant inhibitory effect”. Moreover, the “reduction of pol β activity” value in series [1] (at 10 (unit not given) natamycin, 5 nM pol β) amounted to 3 fold. Moreover, the “toxicity (cell viability) in LAPC4” value in series [2] is “highest toxicity”. Also, in series [3] (CSS medium), the “concentration reducing viability of LNCaP cells” value is at least 0.1 µM. In series [3] (medium supplemented with FBS), the “concentration required to reduce LNCaP viability” value was at least 2.5 µM. The “BER capacity and production of the BER repair product” value in series [4] is given as “significantly reduced BER capacity”. Also, the RWPE1 cell viability entry in series [5] is listed as “significantly decreased”. Further, the “toxicity (cell viability) in LNCaP” value in series [6] is listed as “highest toxicity”.

The record behind these values is patent US11478496B2, “Treatments of prostate cancer” (THE FLORIDA INTERNATIONAL UNIVERSITY BOARD OF TRUSTEES, priority 2020, dated 2022).
